The test system of one assay is G76VUb-GFP in COS1 cells. Kind of assay: UbG76V-GFP proteasome assay in COS1 cells. The class given is cell-based. The following applies: COS1, 8 h. The method, then: COS1 cells at approx. 75% confluence in a 48 well plate were transiently transfected with a plasmid encoding G76VUb-GFP using Mirus 2020 reagent. After this time media with either compound in DMSO or 1% DMSO was added to the cells and the cells were incubated for 8 h. After this time, cells were trypsinized, diluted with 1% FBS in PBS (FACS buffer) then centrifuged at 700 g. After this time cells on ice were treated with FACS buffer containing propidium iodide (0.05 mg/mL). The GFP (indicating proteasome activity) and red fluorescence (dye exclusion showing acute toxicity) were subsequently measured by FACS.

The target of the next assay is T1, cathepsin C (Mus musculus, UniProt P97821).
T1 construct: Mouse full length cathepsin C was from RnD systems; purchased RnD systems (Minneapolis, Minn.)
Kind of assay: Cathepsin C inhibition (Gly-Phe-AMC). Type of assay: biochemical. Conditions: for EC50 for cathepsin C inhibition: 30 min preincubation, substrate 150 μM. The method, then: Panel A is a plot showing the KM calculation for cathepsin C and substrate, Gly-Phe-AMC. Panel B is a plot showing Cathepsin C was incubated with the stated compound for 30 min prior to addition of substrate and residual activity was measured. Panel C is a plot showing the EC50 values calculated from Panel B.
Cathepsin C is an enzyme important in inflammation. […] The assay was undertaken by incubating the enzyme in the presence of compound for 30 min, then adding substrate (150 μM; kM=75 μM) and measuring residual activity. […] TCM41, TCM42, TCM58, TCM43, and TCM97 (FIG. 12). […] Furthermore, substitution in the 3-position of the aniline function appeared to be more favored than 4-substitution (TCM97 vs TCM41). However substitution on the phenyl ester function was much less important for inhibition, with chloro, fluoro and proton all giving similar inhibition potencies.

The target of another assay is T2, USP9x (Homo sapiens, UniProt Q93008).
T2 construct: Lysate labeling assay on untransfected cells; endogenous in cells; host or cells: K562
Kind of assay: HA-Ubiquitin-Vinylsulfone activity profiling in K562 lysates. Type of assay: biochemical. The protocol:
Panel B is an image of an immunoblot showing the titration of TCM23 and TCM28 in K562 lysates. Panel C is a plot showing the quantitation of band corresponding to USP9x in panel B. Panel D is an image of an immunoblot showing the titration of WP1130 in K562 lysates. Panel E is a plot showing the quantification of the efficacy of ITCs for the inhibition of USP9x in K562 lysates (see also Table 2).
[…] After this time HA-Ub-VS (1.5 μM) was added and incubated for 15 min. After this time reaction mixture (15 μL) was removed and quenched in 2× (final concentration) reducing Laemeli buffer. The reaction mixtures were heated to 37° C. for 10 min prior to analysis by western blot for HA.

The subject of a further assay is DUBs. Kind of assay: Cy5-Ub-VME activity profiling of treated BaF3/p210 cells. The class given is cell-based, murine. The following applies: TU71 for 2.5 h or 4 h. The method, then: FIG. 9 has two panels (A and B) depicting data showing that TUs inhibit DUBs in cells. BaF3/p210 cells were incubated with the stated concentration of compound for 4 h. After this time cells were lysed using beads, lysates were normalized, then exposed to Cy5-Ub-VME for 5 min. After quenching, lysates were resolved by SDS-PAGE, analyzed on typhoon, then stained by Coomassie. Panel A is an image of the SDS-PAGE gel visualized via Typhoon imager. Panel B is an image of the SDS PAGE gel stained with Coomassie.
(§1) Panel A is the chemical structure of TU71. Panel B is an image of an immunoblot showing a K562 cell was treated with TU71 for 15 min at which time HAUb-VS was added. After an additional 15 min, aliquots were quenched in reducing loading buffer and analyzed by SDS-PAGE and HA blot. […] BaF3/p21 0 cells were treated with TU71 for 2.5 h (Panel C) or 4 h (Panel D). Cells were harvested, lysed and incubated (0.7 mg/mL protein) with 250 nM Cy5-UbVME for 5 min at 37° C. […] Panel E is an image of an immunoblot showing BaF3/p210 cells were incubated with TU71 for 4 h. The cells were harvested, lysed, analyzed by SDS-PAGE and immunoblotted as indicated. “cPARP” indicates the caspase cleavage of product of PARP and is indicative of apoptosis. Panel F is a bar graph showing data representative of mean±range of two independent experiments, one performed in duplicate of the blot depicted in Panel E.
The increased promiscuity of the inhibitors when the experiment is carried out in cells likely stems from the increased assay time (4 h vs 20 min) coupled with the slow on rates of the inhibitors and their targets.

Assay [1] concerns BaF3/p210 cells. Kind of assay: Apoptosis (cPARP) in BaF3/p210 cells. Type of assay: cell-based, murine. Conditions: 4 h. The protocol: as §1
In assay [2] the test system is DUBs other than USP9x, most notably UCHL5. Kind of assay: HA-Ubiquitin-Vinylsulfone activity profiling, other DUBs. Type of assay: biochemical. The protocol: Lysate labeling assay on untransfected cells (1.5 mg/mL lysate lysed using a Dounce homogenizer, 10 strokes, in 75 mM potassium phosphate pH 7.6, 150 mM NaCl, 0.75 mM BME) was run with the stated concentration of inhibitor (or 1% DMSO control) for 30 min. After this time HA-Ub-VS (1.5 μM) was added and incubated for 15 min. After this time reaction mixture (15 μL) was removed and quenched in 2× (final concentration) reducing Laemeli buffer. The reaction mixtures were heated to 37° C. for 10 min prior to analysis by western blot for HA. […] EC50s calculated by this method were in agreement with those found in the HA-blot.

The next assay relates to MCL-1. Kind of assay: MCL-1 immunoblot in BaF3/p210 cells. The class given is cell-based, murine. Conditions: 4 h. The protocol:
as §1
A general note: Immunoblotting shows a protein as a band on a membrane.

In assay [3] the test system is BaF3/p210 cells. Kind of assay: Proliferation assay (Alamar Blue), BaF3/p210. The class given is cell-based, murine. The source says: This cell line consists of engineered murine leukemia cells that ectopically express Bcr-Abl. Parent BaF3 cells require exogenous interleukin 3 (IL3) because IL3 stimulates expression of MCL1, which is required for survival. However, BaF3/p210 cells require no exogenous interleukins but need Bcr-Abl for survival.
(In general: Resazurin is reduced to fluorescent resorufin, in cell work by metabolically active cells.)

In a further assay the test system is MCF7. Kind of assay: Proliferation assay, MCF7. The following applies: read-out: EC50 MCF7.
For the next assay, the system named is B16-F10. Kind of assay: Proliferation assay, B16-F10. Conditions: read-out: EC50 B16-F10; WP1130, time not stated.
Another assay deals with 3T3. Kind of assay: Proliferation assay, 3T3. Conditions: read-out: EC50 3T3; WP1130, time not stated.
Another assay relates to HeLa. Kind of assay: Proliferation assay, HeLa. Conditions: read-out: EC50 HeLa.
Where [4] appears, read: HA-Ub-VS profiling, values in text, read-out: EC50 for USP9x.
[5] abbreviates: inhibition of USP9x in K562 lysates, data from FIG. 1, read-out: EC50.

Structures are written as SMILES. Read-outs that look alike come from different tables or passages of the source.

Here are results for 14 molecules from patent US10017463B2, “Inhibitors of deubiquitinating proteases” (Brandeis University, priority 2014, dated 2018).

As a reminder, the EC50 is the concentration giving half of the maximal effect.

T1 sequence (P97821 231-393 limits assumed): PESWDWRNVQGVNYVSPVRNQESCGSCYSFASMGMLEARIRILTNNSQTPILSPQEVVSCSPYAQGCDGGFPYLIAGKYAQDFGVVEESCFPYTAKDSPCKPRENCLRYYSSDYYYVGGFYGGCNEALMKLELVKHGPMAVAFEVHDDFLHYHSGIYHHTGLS
T1 sequence (P97821 25-134 limits assumed): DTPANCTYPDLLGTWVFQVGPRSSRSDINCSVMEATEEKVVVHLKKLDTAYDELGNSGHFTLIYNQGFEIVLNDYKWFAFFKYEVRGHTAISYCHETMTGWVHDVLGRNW
T1 sequence (P97821 394-462 limits assumed): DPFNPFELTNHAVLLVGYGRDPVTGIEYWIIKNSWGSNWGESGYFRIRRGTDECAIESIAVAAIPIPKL
T2 sequence (Q93008 whole entry): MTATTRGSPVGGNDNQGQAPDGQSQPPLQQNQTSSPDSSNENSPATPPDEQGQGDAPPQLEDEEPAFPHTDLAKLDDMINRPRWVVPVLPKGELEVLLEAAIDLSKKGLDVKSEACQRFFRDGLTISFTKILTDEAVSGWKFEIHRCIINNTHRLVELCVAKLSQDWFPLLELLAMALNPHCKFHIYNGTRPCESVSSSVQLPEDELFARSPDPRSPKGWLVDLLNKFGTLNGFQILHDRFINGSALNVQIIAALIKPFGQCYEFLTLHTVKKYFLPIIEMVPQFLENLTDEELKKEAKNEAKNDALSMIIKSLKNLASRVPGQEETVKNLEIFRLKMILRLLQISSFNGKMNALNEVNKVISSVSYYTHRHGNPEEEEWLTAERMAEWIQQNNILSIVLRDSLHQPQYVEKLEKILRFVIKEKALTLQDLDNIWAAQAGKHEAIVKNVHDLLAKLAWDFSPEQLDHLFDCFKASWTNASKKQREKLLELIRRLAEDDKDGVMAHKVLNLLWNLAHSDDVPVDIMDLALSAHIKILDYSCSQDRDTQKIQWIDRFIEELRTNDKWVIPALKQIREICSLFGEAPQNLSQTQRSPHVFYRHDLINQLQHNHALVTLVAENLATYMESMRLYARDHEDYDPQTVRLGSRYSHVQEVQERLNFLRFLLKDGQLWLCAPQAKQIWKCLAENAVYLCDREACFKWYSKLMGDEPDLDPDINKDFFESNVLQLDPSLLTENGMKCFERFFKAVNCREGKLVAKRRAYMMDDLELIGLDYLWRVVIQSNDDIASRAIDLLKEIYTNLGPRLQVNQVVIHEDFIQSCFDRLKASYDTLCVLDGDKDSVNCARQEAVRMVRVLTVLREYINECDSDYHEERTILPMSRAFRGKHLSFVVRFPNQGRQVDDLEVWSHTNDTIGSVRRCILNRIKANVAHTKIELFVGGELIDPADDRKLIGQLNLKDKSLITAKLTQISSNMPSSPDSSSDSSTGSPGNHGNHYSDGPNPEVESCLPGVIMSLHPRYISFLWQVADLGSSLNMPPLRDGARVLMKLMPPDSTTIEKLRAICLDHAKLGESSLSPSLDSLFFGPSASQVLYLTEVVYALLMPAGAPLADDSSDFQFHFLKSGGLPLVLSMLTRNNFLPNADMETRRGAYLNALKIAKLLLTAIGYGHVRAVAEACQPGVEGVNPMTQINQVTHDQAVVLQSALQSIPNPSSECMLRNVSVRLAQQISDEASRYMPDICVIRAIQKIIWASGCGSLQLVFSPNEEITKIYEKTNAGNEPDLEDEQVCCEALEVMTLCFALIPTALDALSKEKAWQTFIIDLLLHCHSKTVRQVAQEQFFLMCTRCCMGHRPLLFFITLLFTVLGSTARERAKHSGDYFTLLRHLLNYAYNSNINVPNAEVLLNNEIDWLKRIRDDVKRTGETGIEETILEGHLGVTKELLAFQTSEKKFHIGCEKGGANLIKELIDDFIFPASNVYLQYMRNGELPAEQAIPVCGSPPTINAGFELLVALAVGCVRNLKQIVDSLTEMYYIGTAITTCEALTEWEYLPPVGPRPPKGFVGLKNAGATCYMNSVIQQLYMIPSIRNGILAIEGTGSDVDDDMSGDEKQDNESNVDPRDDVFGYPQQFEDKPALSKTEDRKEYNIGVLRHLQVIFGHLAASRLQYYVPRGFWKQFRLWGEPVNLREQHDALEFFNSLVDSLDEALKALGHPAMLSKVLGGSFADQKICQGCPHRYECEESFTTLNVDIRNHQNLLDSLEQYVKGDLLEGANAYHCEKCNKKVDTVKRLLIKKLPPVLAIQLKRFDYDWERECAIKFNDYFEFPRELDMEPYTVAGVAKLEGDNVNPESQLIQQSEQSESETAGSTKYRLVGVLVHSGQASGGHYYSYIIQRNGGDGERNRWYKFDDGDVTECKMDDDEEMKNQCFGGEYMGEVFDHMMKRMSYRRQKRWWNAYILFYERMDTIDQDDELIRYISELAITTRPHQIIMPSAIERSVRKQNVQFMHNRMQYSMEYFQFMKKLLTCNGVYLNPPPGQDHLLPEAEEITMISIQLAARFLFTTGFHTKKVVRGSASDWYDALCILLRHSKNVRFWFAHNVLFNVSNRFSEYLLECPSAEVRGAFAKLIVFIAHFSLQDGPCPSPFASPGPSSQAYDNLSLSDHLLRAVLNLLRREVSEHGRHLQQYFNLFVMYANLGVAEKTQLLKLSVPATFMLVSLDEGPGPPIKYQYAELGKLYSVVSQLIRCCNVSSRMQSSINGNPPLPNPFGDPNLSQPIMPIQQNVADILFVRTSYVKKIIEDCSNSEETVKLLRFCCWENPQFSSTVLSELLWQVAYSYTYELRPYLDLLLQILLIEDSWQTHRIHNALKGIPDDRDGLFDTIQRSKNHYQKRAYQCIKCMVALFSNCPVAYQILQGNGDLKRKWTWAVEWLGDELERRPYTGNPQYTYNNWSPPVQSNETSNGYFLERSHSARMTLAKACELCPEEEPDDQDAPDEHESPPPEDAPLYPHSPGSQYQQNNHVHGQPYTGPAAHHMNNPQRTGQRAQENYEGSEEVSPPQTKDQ
Protocol for 3T3: (§2) Proliferation assays for adherent cells were conducted by plating cells at 5%-10% confluence in 96 well plates together with compound or 0.1% DMSO. Cells were allowed to grow for 48 h and then Alamar Blue® was added and number of cells was measured by fluorescence on a microplate reader.
Protocol for B16-F10: as §2
Protocol for HeLa: as §2
Protocol for MCF7: as §2

As to `CC(C)C[C@H](NC(=O)[C@H](Cc1ccccc1)NC(=O)c1cnccn1)B(O)O` [Bortezomib, reference compound], in the assay on G76VUb-GFP in COS1 cells, the GFP signal result is “two-fold increase in GFP signal”.
In the case of `CC(C)(C)OC(=O)NCc1ccc(N(C(=S)Oc2ccc(Cl)cc2)C(=S)Oc2ccc(Cl)cc2)cc1` [TCM40], on cathepsin C, the “EC50 for cathepsin C inhibition” value was “low micromolar range”.
On the same count and under the same terms, the entry for `CC(C)(C)OC(=O)NCc1ccc(N(C(=S)Oc2ccccc2)C(=S)Oc2ccccc2)cc1` [TCM41] is “low micromolar range”.
On the same count and under the same terms, the entry for `Cc1ccc(OC(=S)N(C(=S)Oc2ccc(C)cc2)c2ccc(CNC(=O)OC(C)(C)C)cc2)cc1` [TCM42] is “low micromolar range”.
Regarding `CN(C)c1ccc(N(C(=S)Oc2ccccc2)C(=S)Oc2ccccc2)cc1` [TCM43], on cathepsin C, the “relative potency as cathepsin C inhibitor” value is “most potent inhibitor” and the “EC50 for cathepsin C inhibition” value is reported as “low micromolar range”.
Consider `CC(C)(C)OC(=O)NCc1ccc(N(C(=S)Oc2ccc(F)cc2)C(=S)Oc2ccc(F)cc2)cc1` [TCM58], for which the “EC50 for cathepsin C inhibition” value at cathepsin C is “low micromolar range”.
The same measure, in the same setting: to `CC(C)(C)OC(=O)NCc1cccc(N(C(=S)Oc2ccccc2)C(=S)Oc2ccccc2)c1` [TCM97] belongs “low micromolar range”.
In the case of `Cc1cccc(N=C=S)c1` [TU70], the concentration for a half-maximal effect (EC50) was over 50 µM at USP9x (setting [4]) and 61 µM on USP9x (setting [5]).
For the molecule `CC(C)(C)OC(=O)NCCc1cccc(N=C=S)c1` [TU71], the “DUB inhibition in cells” value in the assay with DUBs was “inhibits DUBs”. In addition, in the assay with BaF3/p210 cells [1], the apoptosis entry is “initiates apoptosis”. In addition, the EC50 at USP9x (setting [4]) is 6 to 12 µM; on USP9x (K562 treated with TU71 for 15 min, then HAUb-VS 15 min (FIG. 13), read-out: EC50 for USP9x inhibition), 20 ± 1 µM; on USP9x (setting [5]), 9 µM. The “inhibition of other DUBs other than USP9x” value in assay [2] (at 85 μM) is listed as “weak inhibition”. In addition, in assay [2] (below 25 μM), the “inhibition of other DUBs” value was “little inhibition”. Further, the “level of MCL-1” value with MCL-1 is recorded as “decreases the level”. The “growth inhibition of BaF3/p210 cells” value in the assay on BaF3/p210 cells [3] is “did not show a significant growth inhibition until very high concentrations”.
On to `N#Cc1cc(F)cc(N=C=S)c1` [TU74], for which, on USP9x (setting [5]), the EC50 was found to be 22 µM.
Take `S=C=Nc1ccccc1` [TU76]: the concentration for a half-maximal effect (EC50) on USP9x (setting [4]) is over 50 µM; at USP9x (setting [5]), 131 µM.
With `O=[N+]([O-])c1ccc(N=C=S)cc1` [TU79], the EC50 on USP9x (setting [5]) amounted to 11 µM.
Still for that read-out and setting: to `Fc1cccc(N=C=S)c1` [TU81] belongs 20 µM.
In the case of `CCC[C@H](NC(=O)/C(C#N)=C/c1cccc(Br)n1)c1ccccc1` [WP1130, reference compound], the EC50 in the assay on MCF7, in the assay with B16-F10, in the assay on 3T3, at USP9x (setting [4]) and in the assay with HeLa was 3 µM throughout. Also, the “inhibition of other USPs” value in [2] (conditions as for USP9x EC50) was “also inhibited”.
